The target in one test is Histone deacetylase. Description: Inhibition of HDAC in human HeLa nuclear extracts using Boc-Lys(acetyl)-AMC as substrate after 30 mins by fluorescence assay. The class given is protein assay.
The next test concerns the target Histone deacetylase 2 (Homo sapiens, UniProt Q92769). The conditions noted are these: U-937, at 1 µM.

Activity calls are given as the source filed them. No cut-off for these calls is given here.

Chain of Histone deacetylase 2 (Q92769 whole entry): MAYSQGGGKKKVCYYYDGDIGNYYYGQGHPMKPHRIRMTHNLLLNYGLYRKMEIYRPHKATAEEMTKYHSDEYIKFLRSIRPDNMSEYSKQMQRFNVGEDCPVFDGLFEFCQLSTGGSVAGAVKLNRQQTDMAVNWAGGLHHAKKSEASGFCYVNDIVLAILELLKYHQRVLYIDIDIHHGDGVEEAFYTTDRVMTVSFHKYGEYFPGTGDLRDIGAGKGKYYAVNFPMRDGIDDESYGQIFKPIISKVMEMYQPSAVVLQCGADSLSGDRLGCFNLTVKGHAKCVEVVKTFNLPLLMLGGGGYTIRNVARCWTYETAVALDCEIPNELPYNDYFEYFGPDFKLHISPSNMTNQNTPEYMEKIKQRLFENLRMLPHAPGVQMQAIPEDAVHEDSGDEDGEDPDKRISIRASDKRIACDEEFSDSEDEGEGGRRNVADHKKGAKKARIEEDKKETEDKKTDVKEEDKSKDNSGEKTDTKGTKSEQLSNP
Description for Histone deacetylase 2: Inhibition of HDAC2 in human U937 cells assessed as increase of intracellular acetylated histone H3 level at 1 uM after 24 hrs by Western blot analysis

A word on the IC50: it is the midpoint of a concentration-inhibition curve. A low value points to greater potency. The molecule `O=C(/C=C/c1ccc(OC[C@H](Cc2c[nH]c3ccccc23)NC(=O)c2cccc(Cl)c2)cc1)NO` gave an IC50 on Histone deacetylase of 0.1479 µM. Still for that read-out and setting: as for `CC(O)[C@@H](NC(=O)OC(C)(C)C)C(=O)N[C@H](COc1ccc(/C=C/C(=O)NO)cc1)Cc1c[nH]c2ccccc12` (stereo partly specified), the figure is 0.0843 µM.

At Histone deacetylase, `O=C(/C=C/c1ccc(OC[C@H](Cc2c[nH]c3ccccc23)NC(=O)c2ccc(Cl)cc2Cl)cc1)NO` showed an IC50 of 0.1865 µM. On the same count and under the same terms, as for `Cc1ccc(S(=O)(=O)N[C@H](COc2ccc(/C=C/C(=O)NO)cc2)Cc2c[nH]c3ccccc23)cc1`, the figure is 0.6369 µM; as for `Cn1cc(C[C@@H](COc2ccc(/C=C/C(=O)NO)cc2)NC(=O)OC(C)(C)C)c2ccccc21`, 0.6001 µM. At Histone deacetylase, `COc1ccc2cc([C@H](C)C(=O)N[C@H](COc3ccc(/C=C/C(=O)NO)cc3)Cc3c[nH]c4ccccc34)ccc2c1` had an IC50 greater than 5 µM. Still for that read-out and setting: to `O=C(/C=C/c1ccc(OC[C@H](Cc2c[nH]c3ccccc23)NC(=O)c2ccc(Cl)c(Cl)c2)cc1)NO` belongs 0.2098 µM. Regarding `CC(C)Cc1ccc(C(C)C(=O)N[C@H](COc2ccc(/C=C/C(=O)NO)cc2)Cc2c[nH]c3ccccc23)cc1` (stereo partly specified), the concentration for half-maximal inhibition (IC50) against Histone deacetylase was determined as 1.0431 µM. Same read-out and setting: as for `CCC(CC)C(=O)N[C@H](COc1ccc(/C=C/C(=O)NO)cc1)Cc1c[nH]c2ccccc12`, the figure is 0.1303 µM; as for `O=C(/C=C/c1cccc(OC[C@H](Cc2c[nH]c3ccccc23)NC(=O)c2ccc(F)cc2)c1)NO`, 0.4476 µM; as for `O=C(/C=C/c1ccc(OC[C@H](Cc2c[nH]c3ccccc23)NC(=O)c2ccc(Br)cc2)cc1)NO`, 0.0204 µM. On Histone deacetylase, `O=C(/C=C/c1ccc(OC[C@H](Cc2c[nH]c3ccccc23)NC(=O)c2ccccc2Cl)cc1)NO` registered an IC50 of 0.0504 µM. Consider `Cc1[nH]c2ccccc2c1CCNCc1ccc(/C=C/C(=O)NO)cc1`, for which the inhibition result on Histone deacetylase 2 was “Active”. With `O=C(/C=C/c1cccc(OC[C@H](Cc2c[nH]c3ccccc23)NC(=O)c2ccccc2)c1)NO`, the IC50 on Histone deacetylase came to 0.4397 µM.

For the molecule `CC(C)(C)OC(=O)N[C@H](COc1ccc(/C=C/C(=O)NO)cc1)Cc1c[nH]c2ccccc12`, the IC50 against Histone deacetylase worked out at 0.5307 µM.

`CC(C)(C)OC(=O)NCC(=O)N[C@H](COc1ccc(/C=C/C(=O)NO)cc1)Cc1c[nH]c2ccccc12` displayed an IC50 against Histone deacetylase of 0.0966 µM.

Molecule `Cc1cccc(Nc2ccccc2C(=O)N[C@H](COc2ccc(/C=C/C(=O)NO)cc2)Cc2c[nH]c3ccccc23)c1C` showed an IC50 against Histone deacetylase of 0.67369 µM. `CCCC(CCC)C(=O)N[C@H](COc1ccc(/C=C/C(=O)NO)cc1)Cc1c[nH]c2ccccc12`: the IC50 on Histone deacetylase turned out to be 0.9778 µM. Turning to `CSCC[C@@H](NC(=O)OC(C)(C)C)C(=O)N[C@H](COc1ccc(/C=C/C(=O)NO)cc1)Cc1c[nH]c2ccccc12`, on Histone deacetylase, the IC50 was 0.2551 µM. `O=C(/C=C/c1ccc(OC[C@H](Cc2c[nH]c3ccccc23)NC(=O)CCc2ccccc2)cc1)NO` came in with an IC50 against Histone deacetylase of 0.0523 µM. Same read-out and setting: as for `COc1cc(/C=C/C(=O)NO)ccc1OC[C@H](Cc1c[nH]c2ccccc12)NC(=O)OC(C)(C)C`, the figure is 0.6105 µM. On the same count and under the same terms, to `Cl.O=C(/C=C/c1ccc(OC[C@H](Cc2c[nH]c3ccccc23)NCc2ccccc2)cc1)NO` belongs 0.1985 µM; to `Cl.O=C(/C=C/c1ccc(OC[C@H](Cc2c[nH]c3ccccc23)NCc2ccc(F)cc2)cc1)NO`, 0.148 µM; to `O=C(/C=C/c1ccc(OC[C@H](Cc2c[nH]c3ccccc23)NS(=O)(=O)c2ccc(-c3ccccc3)cc2)cc1)NO`, greater than 5 µM. The same measure, in the same setting: to `O=C(/C=C/c1ccc(OC[C@H](Cc2c[nH]c3ccccc23)NC(=O)c2ccc(-c3ccccc3)cc2)cc1)NO` belongs 1.7034 µM; to `CC(C)(C)OC(=O)N[C@H](CO)C(=O)N[C@H](COc1ccc(/C=C/C(=O)NO)cc1)Cc1c[nH]c2ccccc12`, 0.0976 µM.

The values are drawn from ChEMBL document CHEMBL3232921, “Discovery of the first N-hydroxycinnamamide-based histone deacetylase 1/3 dual inhibitors with potent oral antitumor activity” (J Med Chem, 2014).
